These results are taken from patent publication US12344610B2, “APOL1 inhibitors and methods of use” (Maze Therapeutics, Inc., priority 2022, dated 2025).

Where two headings read alike, the source gives them in different places.

Usually EC50 stands for the concentration giving half of the maximal effect.

The subject of assay [1] is Trypanosoma brucei Lister 427 VSG221 with APOL1 G0 recombinant protein. As to the kind of experiment: APOL1 G0 trypanosome cell rescue assay (Example B5). It counts as cell-based. Particulars: geometric mean of at least 2 assay runs, † = single assay run. A digest of the protocol: (§1)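 Compounds in duplicate 2-fold, 11-point series with 0.4% DMSO final. Next, tag-free mature APOL1 variant protein went in from a 2 μg/mL solution, then trypanosomes to 250 per well. Plates incubated 20 h humidified at 37° C, equilibrated to room temperature, and CellTiter-Glo added for luminescence.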

Assay [2] concerns Trypanosoma brucei Lister 427 VSG221 with APOL1 G2 recombinant protein. As to the kind of experiment: APOL1 G2 trypanosome cell rescue assay (Example B5). It counts as cell-based. The settings on record: geometric mean of at least 2 assay runs, † = single assay run. A digest of the protocol: as §1
[3] abbreviates: Trypanosoma brucei, 20 h, read-out: APOL1 G0 Trypanosome Rescue EC50, Trypanosoma brucei Lister 427 VSG221 with APOL1 G0 recombinant protein, 20 hours, CellTiter-Glo.
The mark [4] stands for this setting: Trypanosoma brucei, 20 h, read-out: APOL1 G2 Trypanosome Rescue EC50, Trypanosoma brucei Lister 427 VSG221 with APOL1 G2 recombinant protein, 20 hours, CellTiter-Glo.
[5] abbreviates: read-out: APOL1 G0 Trypanosome Rescue EC50, Trypanosoma brucei Lister 427 VSG221 with APOL1 G0 recombinant protein, 20 hours, CellTiter-Glo.
The mark [6] stands for this setting: read-out: APOL1 G2 Trypanosome Rescue EC50, Trypanosoma brucei Lister 427 VSG221 with APOL1 G2 recombinant protein, 20 hours, CellTiter-Glo.

In the case of `CC(c1ccc(OCCN2CCC3(CC2)C(=O)Nc2ccc(Cl)cc23)cc1)S(C)(=O)=O` (single isomer, unassigned) [Compound 39, 5-chloro-1′-(2-{4-[(1S) or (1R)-1-methanesulfonylethyl]phenoxy}ethyl)-1,2-dihydrospiro[indole-3,4′-piperidin]-2-one], the EC50 was 156 nM in assay [1] (setting [3]) and 53 nM in assay [2] (setting [4]).
Taken in the same sequence, the figures for `O=C1CCc2cc(OCCN3CCC4(CC3)C(=O)Nc3ccc(Cl)cc34)cnc2N1[C@H]1C[C@@H](CO)C1` (single isomer, unassigned) [Compound 319, 5-chloro-1′-[2-({7-oxo-8-[(cis)-3-(hydroxymethyl)cyclobutyl]-5,6,7,8-tetrahydro-1,8-naphthyridin-3-yl}oxy)ethyl]-1,2-dihydrospiro[indole-3,4′-piperidin]-2-one] were 69.7 nM and 27 nM.
Taken in the same sequence, the figures for `CC[C@]1(O)C[C@@H](N2C(=O)CCc3cc(OCCN4CCC5(CC4)C(=O)Nc4ccc(Cl)cc45)cnc32)C1` (single isomer, unassigned) [Compound 321, 5-chloro-1′-[2-({7-oxo-8-[(cis)-3-ethyl-3-hydroxycyclobutyl]-5,6,7,8-tetrahydro-1,8-naphthyridin-3-yl}oxy)ethyl]-1,2-dihydrospiro[indole-3,4′-piperidin]-2-one] were 39.6 nM and 14.3 nM.
`CC1(O)CC(CN2C(=O)CCc3cc(OCCN4CCC5(CC4)C(=O)Nc4ccc(Cl)cc45)cnc32)C1` (single isomer, unassigned) [Compound 322, 5-chloro-1′-{2-[(7-oxo-8-{[(trans) or (cis)-3-hydroxy-3-methylcyclobutyl]methyl}-5,6,7,8-tetrahydro-1,8-naphthyridin-3-yl)oxy]ethyl}-1,2-dihydrospiro[indole-3,4′-piperidin]-2-one]: the values for the half-maximal effective concentration (EC50) in assay [1] (setting [5]) and in assay [2] (setting [6]) were 29.3 nM and 11.7 nM, respectively.
Regarding `C[C@]1(O)C[C@@H](n2ncc3cc(OCCN4CCC5(CC4)C(=O)Nc4ccc(Cl)cc45)cnc32)C1` (single isomer, unassigned) [Compound 357, 5-chloro-1′-[2-({1-[(cis)-3-hydroxy-3-methylcyclobutyl]-1H-pyrazolo[3,4-b]pyridin-5-yl}oxy)ethyl]-1,2-dihydrospiro[indole-3,4′-piperidin]-2-one], the EC50 in assay [1] (setting [3]) is 61.2 nM; in assay [2] (setting [4]), 28.1 nM.
Consider `CC1(O)CC(c2ncc(OCCN3CCC4(CC3)C(=O)Nc3ccc(Cl)cc34)cn2)C1` (single isomer, unassigned) [Compound 393, 5-chloro-1′-[2-({2-[(cis) or (trans)-3-hydroxy-3-methylcyclobutyl]pyrimidin-5-yl}oxy)ethyl]-1,2-dihydrospiro[indole-3,4′-piperidin]-2-one], for which the results for the EC50 in assay [1] (setting [5]) and in assay [2] (setting [6]) were 300 nM and 120 nM, respectively.
With `C[C@]1(O)C[C@H](n2ncc3cc(OCCN4CCC5(CC4)C(=O)Nc4ccc(Cl)cc45)cnc32)C1` (single isomer, unassigned) [Compound 408, 5-chloro-1′-[2-({1-[(trans)-3-hydroxy-3-methylcyclobutyl]-1H-pyrazolo[3,4-b]pyridin-5-yl}oxy)ethyl]-1,2-dihydrospiro[indole-3,4′-piperidin]-2-one], the EC50 stood at 84.8 nM in assay [1] (setting [3]) and 43.6 nM in assay [2] (setting [4]).
Taken in the same sequence, the figures for `C[C@]1(O)C[C@@H](N2C(=O)CCc3cc(OCCN4CCC5(CC4)C(=O)Nc4ccc(OC(F)F)cc45)cnc32)C1` [Cmpd 325, 5-(difluoromethoxy)-1′-[2-({7-oxo-8-[(cis)-3-hydroxy-3-methylcyclobutyl]-5,6,7,8-tetrahydro-1,8-naphthyridin-3-yl}oxy)ethyl]-1,2-dihydrospiro[indole-3,4′-piperidin]-2-one] were 213 nM and 77.5 nM.
The like results for `CC(c1ncc(OCCN2CCC3(CC2)C(=O)Nc2ccc(Cl)cc23)cn1)S(C)(=O)=O` (centres unmarked) [Compound 1, 5-Chloro-1′-(2-{[2-(1-methanesulfonylethyl)pyrimidin-5-yl]oxy}ethyl)-1,2-dihydrospiro[indole-3,4′-piperidin]-2-one] were, in that order, 225 nM and 89.6 nM.
The like results for `CS(=O)(=O)C1(c2ncc(OCCN3CCC4(CC3)C(=O)Nc3ccc(Cl)cc34)cn2)CC1` [Compound 4, 5-chloro-1′-(2-{[2-(1-methanesulfonylcyclopropyl)pyrimidin-5-yl]oxy}ethyl)-1,2-dihydrospiro[indole-3,4′-piperidin]-2-one] were, in that order, 116 nM and 51.9 nM.
As to `Cc1nc(-c2ccc(OCCN3CCC4(CC3)C(=O)N(C)c3ccccc34)cc2)no1` [Compound 35, 1-methyl-1′-{2-[4-(5-methyl-1,2,4-oxadiazol-3-yl)phenoxy]ethyl}-1,2-dihydrospiro[indole-3,4′-piperidin]-2-one], the EC50 in assay [1] (setting [3]) and in assay [2] (setting [4]) was greater than 4000 nM throughout.
Regarding `CC(=O)N1CCCc2cc(OCCN3CCC4(CC3)C(=O)N(C)c3ccccc34)ccc21` [Compound 36, 1′-{2-[(1-acetyl-1,2,3,4-tetrahydroquinolin-6-yl)oxy]ethyl}-1-methyl-1,2-dihydrospiro[indole-3,4′-piperidin]-2-one], the EC50 in assay [1] (setting [3]) was greater than 4000 nM; in assay [2] (setting [4]) it was 1710 nM.
In the case of `CS(=O)(=O)c1c(F)cc(OCCN2CCC3(CC2)C(=O)Nc2ccccc23)cc1F` [Compound 42, 1′-[2-(3,5-difluoro-4-methanesulfonylphenoxy)ethyl]-1,2-dihydrospiro[indole-3,4′-piperidin]-2-one], the figures for the EC50 in assay [1] (setting [3]) and in assay [2] (setting [4]) were 1260 nM and 406 nM, respectively.
The like results for `O=C1Nc2ccc(Cl)cc2C12CCN(CCOc1ccc(S(=O)(=O)C3CC3)cc1)CC2` [Compound 43, 5-chloro-1′-{2-[4-(cyclopropanesulfonyl)phenoxy]ethyl}-1,2-dihydrospiro[indole-3,4′-piperidin]-2-one] were, in that order, 52.2 nM and 19.4 nM.
For the compound `O=C1Nc2ccccc2C12CCN(CCOc1ccc(S(=O)(=O)C(F)F)cc1)CC2` [Compound 44, 1′-[2-(4-difluoromethanesulfonylphenoxy)ethyl]-1,2-dihydrospiro[indole-3,4′-piperidin]-2-one], the EC50 in assay [1] (setting [3]) stood at 331 nM; in assay [2] (setting [4]), 119 nM.
As to `NC(=O)c1ccc(OCCN2CCC3(CC2)C(=O)Nc2ccc(Cl)cc23)cc1` [Compound 45, 4-(2-{5-chloro-2-oxo-1,2-dihydrospiro[indole-3,4′-piperidin]-1′-yl}ethoxy)benzamide], the values for the EC50 in assay [1] (setting [3]) and in assay [2] (setting [4]) were 476 nM and 162 nM, respectively.
The like results for `NC(=O)c1ccc(OCCN2CCC3(CC2)C(=O)Nc2ccc(Cl)cc23)cc1F` [Compound 46, 4-(2-{5-chloro-2-oxo-1,2-dihydrospiro[indole-3,4′-piperidin]-1′-yl}ethoxy)-2-fluorobenzamide] were, in that order, 156 nM and 50.5 nM.
On to `Cc1cc(OCCN2CCC3(CC2)C(=O)Nc2ccc(Cl)cc23)ccc1C(N)=O` [Compound 49, 4-(2-{5-chloro-2-oxo-1,2-dihydrospiro[indole-3,4′-piperidin]-1′-yl}ethoxy)-2-methylbenzamide], for which the EC50 in assay [1] (setting [3]) was determined as 213 nM; in assay [2] (setting [4]), 109 nM.
The like results for `CS(=O)(=O)c1ccc(OCCN2CCC3(CC2)C(=O)Nc2ccc(Cl)cc23)cc1C#N` [Compound 50, 5-(2-{5-chloro-2-oxo-1,2-dihydrospiro[indole-3,4′-piperidin]-1′-yl}ethoxy)-2-methanesulfonylbenzonitrile] were, in that order, 30 nM and 10.2 nM.
